From the NIST ThermoML archive (doi:10.1021/je700406p)
Numbers after ± are expanded uncertainties.

Assay: wn = mass fraction of the nth substance listed
Conditions: Liquid, Vibrating tube method

CC(C)(N)CO [2-amino-2-methylpropan-1-ol] + O
Conditions | mass density [kg/m3]
333.05 K, 14990 kPa, w1 = 0.4002 | 976.2 ± 0.9
333.05 K, 15984 kPa, w1 = 0.4002 | 976.6 ± 0.9
333.05 K, 16990 kPa, w1 = 0.4002 | 977 ± 0.9
333.05 K, 18003 kPa, w1 = 0.4002 | 977.4 ± 0.9
333.05 K, 18986 kPa, w1 = 0.4002 | 977.8 ± 0.9
333.05 K, 19988 kPa, w1 = 0.4002 | 978.2 ± 0.9
333.05 K, 21502 kPa, w1 = 0.4002 | 978.8 ± 0.9
342.91 K, 1020 kPa, w1 = 0.2821 | 969 ± 0.6
342.91 K, 2011 kPa, w1 = 0.2821 | 969.5 ± 0.6
342.91 K, 3009 kPa, w1 = 0.2821 | 969.9 ± 0.6
342.91 K, 4010 kPa, w1 = 0.2821 | 970.3 ± 0.6
342.91 K, 4994 kPa, w1 = 0.2821 | 970.8 ± 0.6
342.91 K, 5994 kPa, w1 = 0.2821 | 971.2 ± 0.6
342.91 K, 7035 kPa, w1 = 0.2821 | 971.6 ± 0.6
342.91 K, 7995 kPa, w1 = 0.2821 | 972 ± 0.6
342.91 K, 8990 kPa, w1 = 0.2821 | 972.4 ± 0.6
342.91 K, 9998 kPa, w1 = 0.2821 | 972.9 ± 0.6
342.91 K, 10992 kPa, w1 = 0.2821 | 973.3 ± 0.6
342.91 K, 11994 kPa, w1 = 0.2821 | 973.7 ± 0.6
342.91 K, 12992 kPa, w1 = 0.2821 | 974.1 ± 0.6
342.91 K, 13990 kPa, w1 = 0.2821 | 974.5 ± 0.6
342.91 K, 14992 kPa, w1 = 0.2821 | 974.9 ± 0.6
342.91 K, 15993 kPa, w1 = 0.2821 | 975.4 ± 0.6
342.91 K, 16987 kPa, w1 = 0.2821 | 975.8 ± 0.6
342.91 K, 17985 kPa, w1 = 0.2821 | 976.2 ± 0.6
342.91 K, 18987 kPa, w1 = 0.2821 | 976.6 ± 0.6
342.91 K, 19984 kPa, w1 = 0.2821 | 977 ± 0.6
342.91 K, 20986 kPa, w1 = 0.2821 | 977.4 ± 0.6
342.92 K, 509 kPa, w1 = 0.1997 | 971.6 ± 0.5
342.92 K, 1001 kPa, w1 = 0.1997 | 971.8 ± 0.5
342.92 K, 1008 kPa, w1 = 0.4976 | 953.4 ± 1.2
342.92 K, 2000 kPa, w1 = 0.1997 | 972.2 ± 0.5
342.92 K, 2004 kPa, w1 = 0.4976 | 953.8 ± 1.2
342.92 K, 3000 kPa, w1 = 0.1997 | 972.7 ± 0.5
342.92 K, 3006 kPa, w1 = 0.4976 | 954.3 ± 1.2
342.92 K, 4000 kPa, w1 = 0.1997 | 973.1 ± 0.5
342.92 K, 4000 kPa, w1 = 0.4976 | 954.8 ± 1.2
342.92 K, 4997 kPa, w1 = 0.4976 | 955.3 ± 1.2
342.92 K, 5000 kPa, w1 = 0.1997 | 973.6 ± 0.5
342.92 K, 5996 kPa, w1 = 0.4976 | 955.7 ± 1.2
342.92 K, 6000 kPa, w1 = 0.1997 | 974 ± 0.5
342.92 K, 6996 kPa, w1 = 0.4976 | 956.2 ± 1.2
342.92 K, 7001 kPa, w1 = 0.1997 | 974.4 ± 0.5
342.92 K, 7993 kPa, w1 = 0.4976 | 956.7 ± 1.2
342.92 K, 8000 kPa, w1 = 0.1997 | 974.8 ± 0.5
342.92 K, 8988 kPa, w1 = 0.4976 | 957.2 ± 1.2
342.92 K, 9009 kPa, w1 = 0.1997 | 975.2 ± 0.5
342.92 K, 9983 kPa, w1 = 0.4976 | 957.6 ± 1.2
342.92 K, 10002 kPa, w1 = 0.1997 | 975.6 ± 0.5
342.92 K, 10990 kPa, w1 = 0.4976 | 958.1 ± 1.2
342.92 K, 11001 kPa, w1 = 0.1997 | 976 ± 0.5
342.92 K, 12000 kPa, w1 = 0.1997 | 976.5 ± 0.5
342.92 K, 12003 kPa, w1 = 0.4976 | 958.5 ± 1.3
342.92 K, 12992 kPa, w1 = 0.4976 | 958.9 ± 1.3
342.92 K, 13000 kPa, w1 = 0.1997 | 976.9 ± 0.5
342.92 K, 13996 kPa, w1 = 0.4976 | 959.4 ± 1.3
342.92 K, 14000 kPa, w1 = 0.1997 | 977.3 ± 0.5
342.92 K, 14988 kPa, w1 = 0.4976 | 959.9 ± 1.3
342.92 K, 15002 kPa, w1 = 0.1997 | 977.7 ± 0.5
342.92 K, 15995 kPa, w1 = 0.4976 | 960.3 ± 1.3
342.92 K, 16002 kPa, w1 = 0.1997 | 978.2 ± 0.5
342.92 K, 16984 kPa, w1 = 0.4976 | 960.8 ± 1.3
342.92 K, 17001 kPa, w1 = 0.1997 | 978.6 ± 0.5
342.92 K, 17995 kPa, w1 = 0.4976 | 961.2 ± 1.3
342.92 K, 18002 kPa, w1 = 0.1997 | 979 ± 0.5
342.92 K, 18994 kPa, w1 = 0.4976 | 961.7 ± 1.3
342.92 K, 18999 kPa, w1 = 0.1997 | 979.2 ± 0.5
342.92 K, 19993 kPa, w1 = 0.4976 | 962.1 ± 1.3
342.92 K, 20029 kPa, w1 = 0.1997 | 979.8 ± 0.5
342.92 K, 21004 kPa, w1 = 0.1997 | 980.2 ± 0.5
342.92 K, 21021 kPa, w1 = 0.4976 | 962.5 ± 1.3
342.92 K, 22004 kPa, w1 = 0.1997 | 980.6 ± 0.5
342.92 K, 23001 kPa, w1 = 0.1997 | 981 ± 0.5
342.92 K, 24005 kPa, w1 = 0.1997 | 981.5 ± 0.5
342.93 K, 1004 kPa, w1 = 0.4002 | 962.4 ± 0.9
342.93 K, 2006 kPa, w1 = 0.4002 | 962.8 ± 0.9
342.93 K, 3009 kPa, w1 = 0.4002 | 963.3 ± 0.9
342.93 K, 4013 kPa, w1 = 0.4002 | 963.7 ± 0.9
342.93 K, 4998 kPa, w1 = 0.4002 | 964.2 ± 0.9
342.93 K, 5995 kPa, w1 = 0.4002 | 964.6 ± 0.9
342.93 K, 6996 kPa, w1 = 0.4002 | 965 ± 0.9
342.93 K, 7995 kPa, w1 = 0.4002 | 965.5 ± 0.9
342.93 K, 8994 kPa, w1 = 0.4002 | 965.9 ± 0.9
342.93 K, 10004 kPa, w1 = 0.4002 | 966.3 ± 0.9
342.93 K, 10993 kPa, w1 = 0.4002 | 966.8 ± 0.9
342.93 K, 12000 kPa, w1 = 0.4002 | 967.2 ± 0.9
342.93 K, 12990 kPa, w1 = 0.4002 | 967.6 ± 0.9
342.93 K, 13993 kPa, w1 = 0.4002 | 968 ± 0.9
342.93 K, 14985 kPa, w1 = 0.4002 | 968.5 ± 0.9
342.93 K, 15999 kPa, w1 = 0.4002 | 968.9 ± 0.9
342.93 K, 16987 kPa, w1 = 0.4002 | 969.3 ± 0.9
342.93 K, 17994 kPa, w1 = 0.4002 | 969.8 ± 0.9
342.93 K, 18984 kPa, w1 = 0.4002 | 970.2 ± 0.9
342.93 K, 19987 kPa, w1 = 0.4002 | 970.6 ± 0.9
342.93 K, 20996 kPa, w1 = 0.4002 | 971 ± 0.9
352.84 K, 1007 kPa, w1 = 0.4002 | 954.4 ± 0.8
352.84 K, 2012 kPa, w1 = 0.4002 | 954.9 ± 0.8
352.84 K, 3000 kPa, w1 = 0.4002 | 955.3 ± 0.8
352.84 K, 4011 kPa, w1 = 0.4002 | 955.8 ± 0.8
352.84 K, 5007 kPa, w1 = 0.4002 | 956.3 ± 0.9
352.84 K, 6009 kPa, w1 = 0.4002 | 956.7 ± 0.9
352.84 K, 7008 kPa, w1 = 0.4002 | 957.2 ± 0.9
352.84 K, 8014 kPa, w1 = 0.4002 | 957.6 ± 0.9
352.84 K, 8988 kPa, w1 = 0.4002 | 958.1 ± 0.9
352.84 K, 9986 kPa, w1 = 0.4002 | 958.5 ± 0.9
352.84 K, 11001 kPa, w1 = 0.4002 | 959 ± 0.9
352.84 K, 12004 kPa, w1 = 0.4002 | 959.5 ± 0.9
352.84 K, 12991 kPa, w1 = 0.4002 | 959.8 ± 0.9
352.84 K, 13986 kPa, w1 = 0.4002 | 960.3 ± 0.9
352.84 K, 14991 kPa, w1 = 0.4002 | 960.8 ± 0.9
352.84 K, 15997 kPa, w1 = 0.4002 | 961.2 ± 0.9
352.84 K, 16988 kPa, w1 = 0.4002 | 961.6 ± 0.9
352.84 K, 17995 kPa, w1 = 0.4002 | 962 ± 0.9
352.84 K, 18987 kPa, w1 = 0.4002 | 962.5 ± 0.9
352.84 K, 19995 kPa, w1 = 0.4002 | 962.9 ± 0.9
352.84 K, 20986 kPa, w1 = 0.4002 | 963.3 ± 0.9
352.85 K, 997 kPa, w1 = 0.2821 | 961.9 ± 0.6
352.85 K, 2011 kPa, w1 = 0.2821 | 962.4 ± 0.6
352.85 K, 2994 kPa, w1 = 0.2821 | 962.8 ± 0.6
352.85 K, 4000 kPa, w1 = 0.2821 | 963.2 ± 0.6
352.85 K, 5006 kPa, w1 = 0.2821 | 963.7 ± 0.6
352.85 K, 6000 kPa, w1 = 0.2821 | 964.1 ± 0.6
352.85 K, 6999 kPa, w1 = 0.2821 | 964.5 ± 0.6
352.85 K, 7996 kPa, w1 = 0.2821 | 965 ± 0.6
352.85 K, 8992 kPa, w1 = 0.2821 | 965.4 ± 0.6
352.85 K, 9994 kPa, w1 = 0.2821 | 965.8 ± 0.6
352.85 K, 10987 kPa, w1 = 0.2821 | 966.2 ± 0.6
352.85 K, 12010 kPa, w1 = 0.2821 | 966.7 ± 0.6
